Laboratory results reported in patent US20240263138A1, “METHODS FOR PREPARING A FOOD INGREDIENT AND COMPOSITIONS PRODUCED THEREBY” (SuperMeat the Essence of Meat Ltd., priority 2021, published 2024).

System: SM ES cells
Assay: Direct differentiation of SM ES cells cultured with oleic acid
Type: cell-based, chicken
Conditions: culturing in the presence of 300 uM, direct differentiation protocol
Experimental: As used herein “direct differentiation protocol” refers to the addition of FAs at high concentrations to a stem cell culture e.g., pluripotent stem cells, (above 25 uM or above 100 uM, when serum is absent or present in the culture) stem cells in order to allow the cells to accumulate fat. […] Next step was to test the ability to control the fatty acid profile of SM ES cells by growing the cells in the presence of certain or several fatty acids (FAs), dependent on the selected edible species.

CCCCCCCC/C=C\CCCCCCCC(=O)O [oleic acid]
proportion of oleic acid (OA) within cells: double
